In patent US8431617B2, “Use of resveratrol for the preparation of a medicament useful for the treatment of influenza virus infections” (Sigma-Tau Industrie Farmaceutiche Riunite S.p.A., priority 2002, dated 2013):

Assays:
[1] = system: influenza virus A/PR8/34, subtype H1N1 (virus PR8); assay: Replication of influenza virus PR8 in MDCK cells, virus released in supernatant titrated as haemagglutinating units; assay type: cell-based
influenza virus A/PR = assay: Survival of mice infected intranasally with influenza virus A/PR; assay type: in vivo, Balb/c AnCrIBR mice; details: 1 mg/kg, intraperitoneal, daily for 7 days
Protocol: Four-week-old female inbred Balb/c AnCrIBR mice were used. Resveratrol, dissolved in PBS, was administered to the animals via the intraperitoneal route at various times after infection with the influenza virus. The reservatrol concentrations were chosen so as to obtain a range of doses in the animals' blood similar to the effective range in vitro (10 to 20 μg/ml).
The mice were inoculated intranasally (i.n.) with a suspension containing the influenza virus A/PR at a multiplicity of infection of 2 HAU/mouse, after light anaesthesia with ether. On the basis of previous experimental data, the influenza virus at this multiplicity of infection produces haemorrhagic pneumonia that leads to the death of 80% of the animals by one week after infection. For the purposes of monitoring the infection trend, both virological and immunological parameters were monitored in addition to studying survival curves.
The efficacy of resveratrol was studied in an experimental influenza virus infection model in the mouse. In this model, intranasal inoculation of the virus causes severe haemorrhagic pneumonia which leads to the death of the animals within 7 to 10 days of infection. The experimental design envisages evaluation of the therapeutic efficacy of the study substance, as assessed on the basis of survival of the infected animals. […]

[2] = system: influenza virus PR8 viral proteins (H0-H1, H2, M, NP, P); assay: Synthesis of viral proteins in infected MDCK cells by Western blotting; assay type: cell-based, influenza virus A/PR8/34, subtype H1N1; details: 15 and 20 μg/ml
Protocol: Viral proteins were analysed by Western blotting. At different times after viral infection, the cells were lysed using special lysis buffers. Equal quantities of proteins were then loaded onto polyacrylamide gel in SDS. After electrophoresis, the proteins were transferred onto a nitrocellulose membrane and treated with anti-influenza polyclonal antibody. After incubation and suitable washings, the filters were treated with a second antibody conjugated to peroxidase and the viral proteins were highlighted by means of the chemiluminescence technique (ECL), using a peroxidase substrate (luminol) which, on reacting with the enzyme, emits a light and makes an impression on the autoradiography plate. The cells were treated with resveratrol at various concentrations (5, 10, 15 and 20 μg/ml). To allow better imaging of the viral proteins, the electrophoresis run was done using a 10% polyacrylamide gel (FIG. 7A) and gradient gel (FIG. 7B).

MDCK cells [3] = assay: Assay of intracellular glutathione (GSH) in MDCK cells by HPLC; assay type: cell-based, dog
Protocol: The glutathione assay has been performed as a result of the formation of S-carboxymethyl-derivatives of free thiols with iodoacetic acid followed by conversion of the NH2 terminal groups to 2,4-dinitrophenyl derivatives after the reaction of 1-fluoro-2,4-dinitrobenzene (Anal. Biochemn., 106, 55-62, 1980).
The MDCK cells were detached by means of the scraping technique. Later, the cells were centrifuged at 1,200 rpm for 5 minutes. The cells were washed twice in PBS and the precipitate, obtained after centrifuging, was resuspended in 200 μl of buffer. The cell lysates, obtained with repeated cycles of freezing and thawing, were deproteinised by means of precipitation in 5% metaphosphoric acid. After centrifuging at 22,300 g, the low-molecular-weight thiols present in the supernatant were derivatised with 10% iodoacetic acid v/v and neutralised with NaHCO3 in powder form. After 1 h of incubation in the dark a solution of 1.5% 1-chloro-2,4-dinitrobenzene v/v was added (1.5 ml/98.5 ml of absolute ethanol). […] The protein concentration was calculated using the Lowry method (Biol. Chem., 193, 265-75, 1951). […] The reducing reaction product is detected by the formation of stained compounds by reaction with the aromatic amino acids of the proteins. […]

viral proteins NP and M = assay: Localisation of proteins NP and M in infected MDCK cells by immunofluorescence; assay type: cell-based, influenza virus A/PR8/34, subtype H1N1; details: 20 μg/ml
Protocol: Viral replication was also assessed with analysis of the occurrence of viral antigens on the surface of the infected cell by means of immunofluorescence. Analysis of viral proteins by immunofluorescence was done with a fluorescence microscope using a filter emitting in the green (FITC) (lens 100×). MDCK cells, cultured on cover slides for 24 h were infected and, 18 h after infection, were fixed with methanol-acetone 1:1 at 4° C. for 15 min. Later, the cells were washed twice in PBS and permeabilised with a 0.1% solution of PBS-TRITON for 5 min. Blockade of the aspecific sites was done with 1% milk dissolved in PBS for 30 min at ambient temperature. Later, specific monoclonal antibodies (mouse anti-influenza NP and mouse anti-influenza M) to viral proteins were added, diluted 1:50 in PBS for 30 min at ambient temperature. The primary antibody was detected with a secondary antibody conjugated to fluorescein (anti-mouse FITC, Sigma). […]

[4] = system: mRNAs for the viral proteins HA and M; assay: PCR for messenger RNAs of late viral proteins in infected MDCK cells; assay type: cell-based, influenza virus A/PR8/34, subtype H1N1
MDCK cells [5] = assay: Apoptosis in MDCK cells by FACS after labelling with propidium iodide; assay type: cell-based, dog; details: for apoptosis: antiviral doses of the drug
Protocol: As regards the analysis of apoptosis. MDCK cells were infected with the virus PR8. After viral adsorption, the cells were treated with resveratrol at various concentrations (5, 10, 15 and 20 μg/ml). Twenty-four hours after infection, the cells were detached using a 0.25% trypsin solution and then centrifuged at 1,200 rpm for 5 min, The precipitate thus obtained was analysed by means of the FACS technique after labelling with propidium iodide.
For the purposes of assessing whether the induction of cell death by apoptosis was involved in the antiviral effect of reservatrol, MDCK cells were infected or not with the virus and treated with the substance at the various concentrations. Cell death by apoptosis was evaluated by FACS after labelling with propidium iodide. […] The infection in itself induced apoptosis in 12% of infected cells. Although the addition of increasing doses caused an increase in the mortality, no significant difference was observed between infected cells and uninfected cells treated with antiviral doses of the drug (35 and 37% apoptosis, respectively).

MDCK cells [6] = assay: Toxicity of resveratrol on confluent monolayers of uninfected MDCK cells (cell count, Trypan Blue viability)
Protocol: The cells were cultured in T-25 vials or in 6- and 24-well Libno plates in RPMI culture medium added with L-glutamine, penicillin-streptomycin and 10% foetal calf serum (FCS) and maintained at 37° C. in a 5% CO2 atmosphere. The confluent cell monolayers were detached with a 0.25% trypsin solution, centrifuged and reseeded in fresh medium. The cell count was done using a haemocytometer and cell viability was determined by means of exclusion with Trypan Blue viability staining (0.02%).
For the purposes of determining the possible degree of toxicity on the MDCK cells, the latter were treated with resveratrol after the confluence of the monolayer, at various concentrations (5, 10, 15, 20 and 40 μg/ml).

3,4,5-trihydroxystilbene [resveratrol]
time of addition after infection at which viral replication was significantly inhibited ([1]; 20 μg/ml, added 0, 3, 6 and 9 h after infection, HAU/ml 24 h after infection): ≤ 3 h
duration of treatment needed for inhibition of replication ([1]; 20 μg/ml, added immediately after infection, removed at 0, 3, 6, 9 and 24 h): at least 9 hours
reduction of viral titre compared to infected and untreated controls ([1]; 20 μg/ml, added post-infection, MDCK cells, 0.2 m.o.i.): 87%
viral replication after 24 h, treatment only during viral adsorption ([1]; 20 μg/ml, for one hour at 37° C. during adsorption, then removed): comparable to the replication obtained in the control cells
viral replication ([1]; 40 μg/ml): viral replication was completely blocked
viral replication, dose dependence ([1]; added post-infection, 1-40 μg/ml, HAU 24 and 48 h after infection): inhibited viral replication in a dose-dependent manner
reversibility of antiviral activity ([1]; on discontinuing the treatment): not reversible on discontinuing the treatment
viral replication after direct incubation of the virus with the substance ([1]; virus incubated with 40 μg/ml for one hour at 37° C., diluted 1:500, then used for infecting cells): no reduction in viral replication was observed
mortality versus untreated animals (influenza virus A/PR): significantly reduced the mortality
animals that survived the infection (influenza virus A/PR; 2 HAU/mouse i.n.): 60%
expression of early nucleocapside proteins (NP and P) [2]: inhibited, though to a lesser extent than that of the late proteins
synthesis of late haemoagglutinin (H0-H1, H2) and matrix proteins (M) [2]: almost totally inhibited
GSH levels in infected cells (MDCK cells [3]; infected MDCK cells, 24 h after infection): did not restore the GSH levels reduced by the infection
intracellular GSH levels compared to untreated cells (MDCK cells [3]; uninfected MDCK cells): produced a reduction in intracellular GSH levels
localisation of protein NP (viral proteins NP and M): the NP is retained in the nucleus
protein M expression (viral proteins NP and M): significantly inhibited
release of messenger RNAs for the late viral proteins (HA and M) ([4]; 20 μg/ml, evaluated 8 hours after infection): causes a delay in the release of messenger RNAs
synthesis of the mRNAs for HA and M ([4]; 20 h after infection): not affected by treatment with resveratrol
apoptosis (MDCK cells [5]; infected cells): 35%
cell death by apoptosis (MDCK cells [5]; uninfected cells, 5 μg/ml): 8%
cell death by apoptosis (MDCK cells [5]; uninfected cells, 20 μg/ml): 32%
apoptosis (MDCK cells [5]; uninfected cells): 37%
toxic effects on uninfected cells (MDCK cells [6]; 20 μg/ml): without any toxic effects on the uninfected cells being detected
toxic effects / cell mortality (MDCK cells [6]; 40 μg/ml): toxic effects were observed with an increase in cell mortality
morphological alterations of the cells (MDCK cells [6]; 10-20 μg/ml): no morphological alterations of the cells were observed
cell number (MDCK cells [6]; 10-20 μg/ml, confluent monolayer, uninfected): a slight reduction in cell number was observed
